Assay results reported in patent US4168316A, “Immunosuppressive-1-(thiocarbamoyl)-2-imidazolidinone” (Northwestern University, priority 1978, dated 1979).

Assays:
[1] = test system: DNFB-induced ear swelling; assay: ear swelling assay, delayed-type contact sensitivity to 2,4-dinitro-1-fluorobenzene (DNFB); format: in vivo, inbred mice (C57BL/6J; (C57BL/6J×DBA/2J) F1)
Excerpt: In further proof of the activity of the purified material from Example 3 as compared with niridazole per se, there was employed the ear swelling assay of Phanuphak et al. (1), which measures delayed-type contact sensitivity of inbred mice to 2,4-dinitro-1-fluorobenzene (DNFB). The assay was done according to the following protocol: on Day 1, groups of mice, matched for sex and weight, had their abdomens shaved and received varying doses of niridazole or NIF, the purified product of Example 2. The animals were sensitized on Day 3 with 20 μl of 0.5% (v/v) DNFB in acetone: olive oil (4:1, v/v) applied to the shaved abdomen. The sensitization procedure was repeated on Day 4. On Day 8, mice were lightly anesthetized with ether and the right ear thickness measured (10^-2 ×mm) by a modified dial thickness gauge. The right ear was then challenged with 10 μl of 0.5% DNFB solution. Twenty-four hours later, the mice were again anesthetized and the thickness of the right ear was measured to determine the immune response (swelling to the DNFB challenge).

[2] = test system: delayed hypersensitivity-type reactions; conditions: cited from earlier work
[3] = test system: inflammation related to delayed hypersensitivity; conditions: tests on experimental animals; cited from earlier work
[4] = test system: granuloma formation around S. mansoni eggs; assay: granuloma formation around S. mansoni eggs injected intravenously into the pulmonary microvasculature; format: in vivo, CF1 Swiss albino female mice; conditions: niridazole single oral dose 1 mg/kg, Day -1, p<0.005
Experimental: Groups of 5 weanling CF1 Swiss albino female mice (18-22 g body weight) obtained from Carworth Farms, Inc., New City, New York were treated by intravenous injection with different doses of urine fractions at varying time intervals before egg injection. Untreated mice and niridazole treated animals (1 mg/kg body weight given orally on the day before egg injection) were used as controls. […] Fifty granulomas containing eggs in their centers were measured from each experimental group and the significance of the difference was evaluated by the Student's t test.

Structure (SMILES): NC(=S)N1CCNC1=O [NIF, 1-(thiocarbamoyl)-2-imidazolidinone]
- suppression of ear swelling ([1]; 10^-8 -10^-10 g/kg pure (NIF) urine extracts): 50%
- SUPPRESSION ([1]; Exp. II, F1 mice, 1.2 × 10^-8 g/kg ip): 48 ± 7%
- EAR SWELLING (± SEM) ([1]; Exp. II, F1 mice, 1.2 × 10^-8 g/kg ip, n=5, control 30.9): 16.0 ± 2.2 10^-2 × mm
- SUPPRESSION ([1]; Exp. II, F1 mice, 1.2 × 10^-10 g/kg ip): 46 ± 4%
- EAR SWELLING (± SEM) ([1]; Exp. II, F1 mice, 1.2 × 10^-10 g/kg ip, n=5, control 30.9): 16.8 ± 1.2 10^-2 × mm
- SUPPRESSION ([1]; Exp. III, B6 mice, 1.6 × 10^-8 g/kg ip): 52 ± 14%
- EAR SWELLING (± SEM) ([1]; Exp. III, B6 mice, 1.6 × 10^-8 g/kg ip, n=4, control 36.2): 17.5 ± 5.0 10^-2 × mm
- SUPPRESSION ([1]; Exp. III, B6 mice, 1.6 × 10^-8 g/kg iv): 25 ± 21%
- EAR SWELLING (± SEM) ([1]; Exp. III, B6 mice, 1.6 × 10^-8 g/kg iv, n=4, control 36.2): 27.2 ± 7.7 10^-2 × mm
- SUPPRESSION ([1]; Exp. III, B6 mice, 1.6 × 10^-10 g/kg ip): 69 ± 13%
- EAR SWELLING (± SEM) ([1]; Exp. III, B6 mice, 1.6 × 10^-10 g/kg ip, n=4, control 36.2): 11.4 ± 4.8 10^-2 × mm
- SUPPRESSION ([1]; Exp. III, B6 mice, 1.6 × 10^-10 g/kg iv): 45 ± 12%
- EAR SWELLING (± SEM) ([1]; Exp. III, B6 mice, 1.6 × 10^-10 g/kg iv, n=4, control 36.2): 20.0 ± 4.3 10^-2 × mm
- SUPPRESSION ([1]; Exp. III, B6 mice, 1.6 × 10^-11 g/kg iv): 65 ± 9%
- EAR SWELLING (± SEM) ([1]; Exp. III, B6 mice, 1.6 × 10^-11 g/kg iv, n=4, control 36.2): 12.8 ± 3.2 10^-2 × mm
- SUPPRESSION ([1]; Exp. III, B6 mice, 1.6 × 10^-12 g/kg iv): 88 ± 9%
- EAR SWELLING (± SEM) ([1]; Exp. III, B6 mice, 1.6 × 10^-12 g/kg iv, n=4, control 36.2): 4.4 ± 3.2 10^-2 × mm
- ear swelling, in words ([1]; experiment III, extract dose 10^-12 g/kg): all but ablated
- suppression at higher doses, in words ([1]; extract 10^-8 g/kg i.v.): less suppression

Structure (SMILES): O=C1NCCN1c1ncc([N+](=O)[O-])s1 [niridazole, 1-(5-nitro-2-thiazolyl)-2-imidazolidinone, reference compound]
- suppression of delayed hypersensitivity-type reactions, in words ([2]; human studies by Webster et al): corroborated the suppression of delayed hypersensitivity-type reactions
- effect on inflammations, in words ([2]; patients undergoing prolonged treatment, Mahmoud et al): suppressed inflammations
- effect on inflammation related to delayed hypersensitivity, in words [3]: suppression of inflammation related to delayed hypersensitivity including retardation of allograft rejection
- suppression of ear swelling, in words ([1]; 10^-3 to 10^-4 g/kg niridazole intraperitoneally): Significant suppression of ear swelling
- SUPPRESSION ([1]; Exp. I, F1 mice, niridazole dose 10^-2, ip): 37 ± 3%
- EAR SWELLING (± SEM) ([1]; Exp. I, F1 mice, niridazole dose 10^-2, ip, n=5, control 26.9): 17.0 ± 0.9 10^-2 × mm
- SUPPRESSION ([1]; Exp. I, F1 mice, niridazole dose 10^-3, ip): 66 ± 4%
- EAR SWELLING (± SEM) ([1]; Exp. I, F1 mice, niridazole dose 10^-3, ip, n=5, control 26.9): 9.1 ± 1.2 10^-2 × mm
- suppression at higher doses, in words ([1]; niridazole 10 mg/kg): less suppression
- mean granuloma area ([4]; Table III experiment): 11 ± 2.6 μ^2 × 10^3
- mean granuloma area ([4]; Table IV experiment): 8 ± 2.6 μ^2 × 10^3
